We go through 1 substance from patent US9594042B2, “Electrochemical determination of factor XA inhibitors” (Roche Diagnostics Operations Inc., priority 2006, dated 2017).

The experiment concerns the target factor Xa (Homo sapiens, UniProt P00742). Description: premature factor Xa-induced degradation of the thrombin substrate during common dwelling in liquid reagent. The class given is biochemical. Conditions: common dwelling time of 2 h with factor Xa. From the text:
The coagulation factor Xa is a serine protease which naturally recognizes the amino sequence -Ile-Glu-Gly-Arg- of prothrombin and by cleaving this sequence, activates the natural substrate prothrombin to form thrombin. In addition to this physiological substrate, factor Xa is also able to enzymatically cleave other peptides having this or other cleavage sequences. Thus, peptidic thrombin substrates and in particular the widely used Chromozym TH can also be cleaved by factor Xa. This low substrate specificity of factor Xa can result in problems in the methods according to the invention especially when such a thrombin substrate which can also be cleaved by factor Xa is used as a detection reagent and already comes into contact with factor Xa before adding the sample and can be converted thereby. As a result a portion of the thrombin substrate can already be converted such that this is no longer available for the thrombin-mediated detection reaction and thus the result of the measurement is affected. Such undesired side reactions can occur especially when factor Xa and the thrombin substrate are in contact over a long period such as would be for example the case if these two substances were to be introduced simultaneously into a liquid detection reagent. […]

Sequence of factor Xa (P00742 235-488 limits assumed): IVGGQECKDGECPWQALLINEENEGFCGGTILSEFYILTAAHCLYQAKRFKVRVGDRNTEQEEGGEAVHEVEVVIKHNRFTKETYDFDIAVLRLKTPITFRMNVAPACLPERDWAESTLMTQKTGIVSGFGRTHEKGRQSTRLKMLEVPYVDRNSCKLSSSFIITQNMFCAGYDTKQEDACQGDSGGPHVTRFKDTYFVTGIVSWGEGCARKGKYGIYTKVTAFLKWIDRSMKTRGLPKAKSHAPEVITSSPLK
Sequence of factor Xa (P00742 41-179 partner limits assumed): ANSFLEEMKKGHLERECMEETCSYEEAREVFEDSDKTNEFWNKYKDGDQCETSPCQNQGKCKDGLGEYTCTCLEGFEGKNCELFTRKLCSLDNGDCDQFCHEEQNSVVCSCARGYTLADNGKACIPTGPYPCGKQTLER

Take “tosyl-glycy-prolyl-arginine-4-nitroanilide acetate [reduced Chromozym TH]”: the “portion of the reduced Chromozym TH cleaved due alone to the action of factor Xa” value is given as “about 25%”.
